Experiments:
Rattus norvegicus [1] = assay: Antiallergic activity in adrenalectomized Sprague-Dawley rat assessed as inhibition of ovalbumin-induced passive cutaneous anaphylaxis reaction at 1 mg/kg, iv after 12 days by Evans blue staining; format: functional; details: 288 h
Rattus norvegicus [2] = assay: Antiallergic activity in iv dosed adrenalectomized Sprague-Dawley rat assessed as inhibition of ovalbumin-induced passive cutaneous anaphylaxis reaction after 12 days by Evans blue staining; format: functional; details: 288 h

SMILES | inhibition in vivo at 1 mg/kg (Rattus norvegicus [1]) [%] | ED50 (Rattus norvegicus [2]) [mg/kg]
O=C([O-])c1cc(=O)c2cc3c(cc2o1)OCc1ccccc1-3.[Na+] | 64.3 | 0.3
CC1(C)Oc2cc3oc(C(=O)O)cc(=O)c3cc2-c2ccccc21.NCCO | 70.3 | 0.5
CCCCC1(CCCC)Oc2cc3oc(C(=O)O)cc(=O)c3cc2-c2ccccc21 | 25 | 
CC1(C)Oc2cc3oc(C(=O)O)cc(=O)c3cc2-c2cc(Cl)ccc21 | 25 | 
CC1(C)Oc2cc3oc(C(=O)O)cc(=O)c3cc2-c2ccc(Cl)cc21 | 60 | 
CC1(C)Oc2cc3oc(C(=O)O)cc(=O)c3cc2-c2ccc(F)cc21.NCCO | 60 | 0.87
CC1(C)Oc2cc3oc(C(=O)[O-])cc(=O)c3cc2-c2ccc(O)cc21.[Na+] | 77.8 | 0.3
COc1ccc2c(c1)C(C)(C)Oc1cc3oc(C(=O)O)cc(=O)c3cc1-2 | 66.7 | 
CCCOc1ccc2c(c1)C(C)(C)Oc1cc3oc(C(=O)O)cc(=O)c3cc1-2 | 40 | 
CC(=O)Oc1ccc2c(c1)C(C)(C)Oc1cc3oc(C(=O)O)cc(=O)c3cc1-2 | 73.4 | 
COc1cc2c(cc1OC)C(C)(C)Oc1cc3oc(C(=O)O)cc(=O)c3cc1-2 | 67.7 | 
COc1cc2c(cc1Br)-c1cc3c(=O)cc(C(=O)O)oc3cc1OC2(C)C | 0 | 
CC1(C)Oc2cc3oc(C(=O)O)cc(=O)c3cc2-c2ccc([N+](=O)[O-])cc21 | 50 | 
CC1(C)Oc2cc3oc(C(=O)O)cc(=O)c3cc2-c2ccc(S(=O)(=O)O)cc21 | 0 | 
CC1(C)Oc2cc3oc(C(=O)O)cc(=O)c3cc2-c2ccc(N)cc21 | 77.8 | 
COc1cccc2c1COc1cc3oc(C(=O)O)cc(=O)c3cc1-2 | 0 | 
CC1(C)Oc2c(cc3c(=O)cc(C(=O)O)oc3c2Cl)-c2ccccc21 | 66.7 | 
CC1(C)Oc2c(cc3c(=O)cc(C(=O)O)oc3c2[N+](=O)[O-])-c2ccccc21 | 20 | 
COc1c2c(cc3c(=O)cc(C(=O)O)oc13)-c1ccccc1CO2 | 50 | 
O=C(O)c1cc(=O)c2cc3c(c(O)c2o1)OCc1ccccc1-3 | 33.4 | 
CC1(C)Oc2c(cc3c(=O)cc(C(=O)O)oc3c2N)-c2ccccc21 | 64.3 | 
Cc1c2c(cc3oc(C(=O)O)cc(=O)c13)OC(C)(C)c1ccccc1-2 | 0 | 
CC1(C)Oc2cc3oc(C(=O)O)cc(=O)c3c(O)c2-c2ccccc21 | 0 | 
NCCO.O=C(O)c1cc(=O)c2cc3c(oc(=O)c4ccccc43)c(O)c2o1 | 55.6 | 2
CC1(C)Oc2cc3oc(C(=O)O)cc(=O)c3cc2-c2ccc(OCCO)cc21.NCCO | 82.8 | 0.11
O=C([O-])c1cc(=O)c2c(OCC(O)COc3cccc4oc(C(=O)[O-])cc(=O)c34)cccc2o1.[Na+].[Na+] [CROMOLYN SODIUM] | 26.7 | 2.88
